Assays:
DNA = assay: Reaction of E2-3,4-Q or enzymatically-activated 4-OHE2 with DNA in vitro; type: biochemical; conditions: enzymatically activated (peroxidases, tyrosinase, microsomes), all cases
Protocol: To determine whether DNA adducts are formed in biological systems, E2-3,4-Q or enzymatically-activated 4-hydroxyestradiol (4-OHE2) was reacted with DNA for 2 h at 37° C. The stable adducts were quantified by the ^32P-postlabeling method, and the depurinating adducts were analyzed by high pressure liquid chromatography (HPLC) interfaced with an electrochemical detector. When E2-3,4-Q reacted with DNA, almost the same amount of the depurinating adducts 4-OHE2-1-N3Ade and 4-OHE2-1-N7Gua were obtained, and the amount of stable adducts was 0.02% of the depurinating ones. Activation of 4-OHE2 by horseradish peroxidase gave similar results, whereas the mammalian lactoperoxidase produced a similar amount of N3Ade adduct, but about 50% more N7Gua adduct. The same two depurinating adducts were obtained in equal but smaller amounts when 4-OHE2 was activated with tyrosinase or phenobarbital-induced rat liver microsomes. In all cases, the level of stable adducts was 0.02% or less compared to the depurinating adducts (Li K. M., et al., Proc. Am. Assoc. Cancer Res., 39, 636 (1998); Cavalieri, et al., unpublished results).

H-ras gene = assay: H-ras mutation spectra in treated mouse skin (PCR, cloning, sequencing, with or without TDG treatment); type: in vivo; conditions: for A/T to G/C mutations, percent of total mutations / A/T to G/C mutations/total mutations: skin DNA
Protocol: Evidence in support of this was obtained from a comparative study of mutations in the mouse skin H-ras gene induced by 200 nmol of DB[a,l]P or 200 nmol of anti-DB[a,l]P-11,12-dihydrodiol-13,14-epoxide (anti-DB[a,l]PDE). Unlike DB[a,l]P, anti-DB[a,l]PDE forms 97% stable adducts and 3% depurinating adducts in DNA. In these experiments, the types of mutations that are induced in the early preneoplastic times was identified (12 h to 9 days after treatment) and then analyzed whether these mutations were induced as a result of error-prone repair (FIG. 4). The mutations were identified by PCR amplifying a segment of the H-ras gene from DNA extracted from mouse skin treated with one of the carcinogens, cloning the PCR products in a plasmid, isolating individual subclones and sequencing the H-ras inserts to identify mutations. (Chakravarti D., et al., Mutation Res., 456, 17-32 (2000); Cavalieri E. L. and Rogan E. G., Mechanisms of tumor initiation by polycyclic aromatic hydrocarbons in mammals. In: The Handbook of Environmental Chemistry: PAHs and Related Compounds, 3J, 81-117, Neilson A. H. (ed.), Springer, Heidelberg, Germany (1998).)
In this technique, G.T heteroduplexes in skin DNA are converted to G.apyrimidinic sites by treatment with T.G-DNA glycosylase (TDG) (FIG. 5). (Chakravarti D., et al., Mutation Res., 456, 17-32 (2000).)
Since abasic site-containing DNA molecules are refractory to PCR amplification, the conversion of G.T heteroduplexes into G. apyrimidinic sites makes H-ras molecules containing these heteroduplexes unamplifiable. […] As a result, PCR amplification of the H-ras gene from TDG-treated skin DNA, followed by cloning the PCR product and isolating and determining the sequence of individual subclones, causes a specific, drastic reduction of A to G mutations in the mutation spectra. In addition, the preferential PCR amplification artificially enriches low-abundance mutations that are observed only in TDG-treated spectra.
Following the entry of skin cells into S-phase, however, the G.T heteroduplexes are converted into G.C and A.T base pairs by one round of replication. […] Thus, the specific reduction of A to G mutations in the mutation spectra by the TDG-PCR procedure characterizes these mutations as G.T heteroduplexes. […] Therefore, A to G mutations remained as G.T heteroduplexes until one day after DB[a,l]P treatment of the skin; beyond which they were present as G.C and A.T mutations, presumably by replication. Flow cytometric analysis of epidermal keratinocytes isolated from DB[a,l]P-treated mouse skin confirms that cells begin to enter the S-phase one day after the treatment. (Chakravarti D., et al., Mutation Res., 456, 17-32 (2000); Chakravarti et al., unpublished results).
Treatment of mouse skin with 200 nmol of E2-3,4-Q induced primarily A/T to G/C mutations in the H-ras gene (FIG. 7). For example, 6 h after E2-3,4-Q treatment, 7 mutations were identified among 29 H-ras inserts. Five of the seven were A/T to G/C mutations. At 12 h, four out of the six mutations found in 30 H-ras inserts were A/T to G/C mutations. […] The observation that E2-3,4-Q induces mutations at 6 h is, therefore, a basis to propose that these mutations are induced by error-prone repair. To confirm this, TDG-PCR analysis of these mutations was conducted (FIG. 7). […] At 12 h, the change was from 4 in 30 H-ras inserts to 0 in 41 plasmids. […] The TDG-treated 1 day spectrum was dominated by two clonal mutations of equal frequency (codon 16 AAG to AGG and intronic C to T mutations). Because it is unlikely that the intronic mutation would affect Ras activity and the two clonal mutations were found in the same frequency, these mutations may be allelic, belonging to a clonally proliferating population. […] (Chakravarti D., et al., Oncogene, 20, 7945-7953 (2001).)

mouse skin DNA = assay: DNA adducts formed in mouse skin by PAH; type: in vivo
Harvey (H)-ras oncogene = assay: H-ras mutations in mouse skin papillomas initiated by PAH; type: in vivo; conditions: codon 61, skin papillomas
[1] = system: H-ras gene codon 61 (CAA to CTA); assay: PCR-RFLP detection of H-ras codon 61 mutations in treated mouse skin; type: in vivo
Source text: In this technique, a segment of the H-ras gene is PCR-amplified and the product is restricted with XbaI to examine the induction of a RFLP from the codon 61 mutation. It was observed that at one day, 0.1% of the H-ras genes in the treated area of skin contained the codon 61 mutation, and then the population of these mutations increased to a maximum of 5% between 3 and 4 days after DB[a,l]P treatment. Subsequently, the level of mutations was reduced to background levels (0.0001%). The early time of induction of the codon 61 mutations (one day after DB[a,l]P treatment) coincides with suppression of DNA synthesis and induction of excision repair. Therefore, perhaps DB[a,l]P-induced DNA damage is converted into mutations by error-prone excision repair in pre-S-phase cells. (Chakravarti D., et al., Oncogene, 16, 3203-3210 (1998); Slaga T. J., et al., Cancer Res., 34a, 771-777 (1974); Sawyer T. W., et al., Carcinogenesis, 9, 1197-1202 (1988); Gill R. D., et al., Environ. Mol. Mutagen., 18, 200-206 (1991).)

cloned H-ras gene (pWT) = assay: Mutations after PCR of pWT plasmid treated in vitro, with or without TDG; conditions: pWT DNA
Source text: FIGS. 4A-D depict H-ras mutations induced by DB[a,l]P or its metabolite, anti-DB[a/l]PDE. Wild type sequences and nucleotide numbers (GenBank accession No. U89950) are indicated below and mutations are indicated above the line. (A) PCR artifact mutations induced in untreated skin DNA and in a cloned H-ras gene (pWT) treated with anti-DB[a,l]PDE or with acid. Under the treatment conditions, anti-DB[a,l]PDE induces 1 adduct per 1000 bases and acid induces 1 depurination per 170 bases (Chakravarti, D. Et al., Mutat. Res., 456, 17-32 (2000)). (B) H-ras mutations in mouse skin DNA after treatment with 200 nmol DB[a,l]P in 100 μL acetone. At 12 h-1 d, the spectra contained mostly A/T to G/C mutations. At days 2 and 3, multiple codon 61 mutations were observed. At 4 d, no clear pattern of mutations could be determined. At days 5 and 6, multiple codon 52 (CTA to CCA) mutations were observed. […] (C) H-ras mutations in mouse skin DNA after treatment with 200 nmol of anti-DB[a,l]PDE in 100 μL acetone. Fifty to sixty percent of mutations between days 1 to 4 were A/T to G/C mutations. (D) H-ras mutations after TDG treatment of DNA from anti-DB[a,l]PDE-treated pWT and from DB[a,l]P- or anti-DB[a,l]PDE-treated mouse skin. […] These mutations were also observed at days 2 and 3. In addition, at days 2 and 3, multiple codon 13 (GGC to GTC) mutations were observed.
On the other hand, anti-DB[a,l]PDE formed approximately 50% A/T to G/C mutations, which correlated with 48.5% formation of anti-DB[a,l]PDE-Ade stable adducts in mouse skin DNA (Table 2). […] Studies conducted in other laboratories also indicate that nucleotide excision repair of bulky stable adducts is error-free. When the pWT plasmid was treated with anti-DB[a,l]PDE in vitro (97% bulky stable adducts) and subjected to PCR amplification, A/T to G/C mutations was also found to constitute 50% of all mutations (5 out of 10) (FIG. 4A). These mutations are induced by translesional synthesis over bulky stable adducts by the PCR polymerases. If, as has been proposed by others, only a small population of PAH-induced bulky stable adducts is removed by pre-replication repair, a large fraction of anti-DB[a,l]PDE-induced adducts would persist in the mouse skin DNA. It is, therefore, possible that the mutations found in anti-DB[a,l]PDE-treated mouse skin DNA are adduct-induced PCR artifacts. The similarity of the frequencies of A/T to G/C mutations in vitro and in skin is consistent with this idea.

## C[C@]12CC[C@@H]3c4ccc(O)c(O)c4CC[C@H]3[C@@H]1CC[C@@H]2O [4-OHE2, 4-hydroxyestradiol]
DNA
  level of stable adducts compared to the depurinating adducts: ≤ 0.02%

## c1ccc2c(c1)cc1ccc3cccc4c5ccccc5c2c1c34 [DB[a,l]P, dibenzo[a,l]pyrene]
H-ras gene; day 1, +TDG
  A/T to G/C mutations, percent of total mutations: 20%
  A/T to G/C mutations/total mutations: 2/10
H-ras gene; day 1, −TDG
  A/T to G/C mutations, percent of total mutations: 90%
  A/T to G/C mutations/total mutations: 10/11
H-ras gene; day 2, +TDG
  A/T to G/C mutations, percent of total mutations: 27%
  A/T to G/C mutations/total mutations: 6/22
H-ras gene; day 2, −TDG
  A/T to G/C mutations, percent of total mutations: 31%
  A/T to G/C mutations/total mutations: 11/35
H-ras gene; day 3, +TDG
  A/T to G/C mutations, percent of total mutations: 32%
  A/T to G/C mutations/total mutations: 8/25
H-ras gene; day 3, −TDG
  A/T to G/C mutations, percent of total mutations: 31%
  A/T to G/C mutations/total mutations: 7/22
Mouse skin DNA; spontaneous: 10,000-20,000 depurinations/cell/day
  depurinations through depurinating adducts versus spontaneous base loss: approximately 120 fold
Harvey (H)-ras oncogene
  H-ras Mutations, No. of mutations/No. of mice, CAA→CTA: 10/12 CAA→CTA
[1]; 200 nmol, at one day
  H-ras genes in treated skin containing the codon 61 mutation: 0.1%
[1]; 200 nmol, between 3 and 4 days after treatment
  H-ras genes containing the codon 61 mutation, maximum: 5%
[1]; after days 3-4
  level of codon 61 mutations, subsequently reduced to background levels: 0.0001%

## Cc1c2ccccc2c(C)c2c1ccc1ccccc12 [DMBA, 7,12-dimethylbenz[a]anthracene]
Harvey (H)-ras oncogene
  H-ras Mutations, No. of mutations/No. of mice, CAA→CTA: 4/4 CAA→CTA

## OC1c2cc3ccc4cccc5c6ccccc6c(c2C2OC2C1O)c3c45 (stereo not drawn) [anti-DB[a,l]PDE, anti-dibenzo[a,l]pyrene-11,12-dihydrodiol-13,14-epoxide]
H-ras gene; mouse skin
  A/T to G/C mutations formed, share of mutations: approximately 50%
H-ras gene; day 1, +TDG
  A/T to G/C mutations, percent of total mutations: 80%
  A/T to G/C mutations/total mutations: 4/5
H-ras gene; day 1, −TDG
  A/T to G/C mutations, percent of total mutations: 62.5%
  A/T to G/C mutations/total mutations: 5/8
Mouse skin DNA; DNA
  depurinating adducts formed, share of adducts: 3%
  stable adducts formed, share of adducts: 97%
Mouse skin DNA; mouse skin DNA
  Ade stable adducts formed: 48.5%
Cloned H-ras gene (pWT); +TDG
  A/T to G/C mutations, percent of total mutations: 60%
  A/T to G/C mutations/total mutations: 3/5
Cloned H-ras gene (pWT); −TDG
  A/T to G/C mutations, percent of total mutations: 50%
  A/T to G/C mutations/total mutations: 5/10
